# Where “and” joins values, the source holds several entries; their conditions need not be identical. Equal entries are not always repeated. Calls of active or inactive are those of the source.
# Legend:
# [1] = molecular target: Calcium/calmodulin-dependent protein kinase type II subunit delta (Homo sapiens, UniProt Q13557); type: functional
# [2] = molecular target: Fibroblast growth factor receptor 1 (Homo sapiens, UniProt P11362); type: functional
# [3] = molecular target: MAP kinase-interacting serine/threonine-protein kinase 2 (Homo sapiens, UniProt Q9HBH9); type: functional
# Chain of MAP kinase-interacting serine/threonine-protein kinase 2 (Q9HBH9 whole entry): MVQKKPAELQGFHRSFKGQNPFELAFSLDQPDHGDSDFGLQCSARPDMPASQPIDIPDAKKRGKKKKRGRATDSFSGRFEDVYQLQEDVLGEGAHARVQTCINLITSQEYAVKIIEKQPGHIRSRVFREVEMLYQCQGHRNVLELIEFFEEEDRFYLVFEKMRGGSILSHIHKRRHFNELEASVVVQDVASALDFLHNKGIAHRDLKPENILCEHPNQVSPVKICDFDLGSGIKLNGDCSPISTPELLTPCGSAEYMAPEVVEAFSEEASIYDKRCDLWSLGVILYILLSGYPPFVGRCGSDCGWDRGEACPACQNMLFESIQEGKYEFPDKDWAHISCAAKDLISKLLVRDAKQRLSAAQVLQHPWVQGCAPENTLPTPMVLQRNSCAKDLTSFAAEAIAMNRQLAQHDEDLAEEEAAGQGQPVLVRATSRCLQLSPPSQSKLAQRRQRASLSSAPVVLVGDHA
# [4] = molecular target: Maternal embryonic leucine zipper kinase (Homo sapiens, UniProt Q14680); type: functional
# Chain of Maternal embryonic leucine zipper kinase (Q14680 whole entry): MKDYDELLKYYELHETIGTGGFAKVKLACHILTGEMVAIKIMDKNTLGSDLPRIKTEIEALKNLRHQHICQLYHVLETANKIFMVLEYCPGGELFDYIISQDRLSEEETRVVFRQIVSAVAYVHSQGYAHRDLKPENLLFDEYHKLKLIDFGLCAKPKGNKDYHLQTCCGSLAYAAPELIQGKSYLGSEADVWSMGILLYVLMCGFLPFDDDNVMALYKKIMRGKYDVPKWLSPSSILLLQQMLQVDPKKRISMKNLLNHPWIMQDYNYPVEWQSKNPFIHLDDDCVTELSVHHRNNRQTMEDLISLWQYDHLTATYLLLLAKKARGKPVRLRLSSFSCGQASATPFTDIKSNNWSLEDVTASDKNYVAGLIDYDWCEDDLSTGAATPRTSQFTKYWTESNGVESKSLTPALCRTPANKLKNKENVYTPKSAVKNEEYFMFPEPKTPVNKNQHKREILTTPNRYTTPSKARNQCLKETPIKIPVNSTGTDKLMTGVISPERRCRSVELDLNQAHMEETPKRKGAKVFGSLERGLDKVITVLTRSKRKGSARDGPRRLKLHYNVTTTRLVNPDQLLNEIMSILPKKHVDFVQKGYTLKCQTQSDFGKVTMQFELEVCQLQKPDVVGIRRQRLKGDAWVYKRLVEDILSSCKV
# [5] = molecular target: Cyclin-dependent kinase 1 (Homo sapiens, UniProt P06493); type: functional;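 note: Kinome-wide panel profiling, with the target listed as panel member CDC2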
# Chain of Cyclin-dependent kinase 1 (P06493 whole entry): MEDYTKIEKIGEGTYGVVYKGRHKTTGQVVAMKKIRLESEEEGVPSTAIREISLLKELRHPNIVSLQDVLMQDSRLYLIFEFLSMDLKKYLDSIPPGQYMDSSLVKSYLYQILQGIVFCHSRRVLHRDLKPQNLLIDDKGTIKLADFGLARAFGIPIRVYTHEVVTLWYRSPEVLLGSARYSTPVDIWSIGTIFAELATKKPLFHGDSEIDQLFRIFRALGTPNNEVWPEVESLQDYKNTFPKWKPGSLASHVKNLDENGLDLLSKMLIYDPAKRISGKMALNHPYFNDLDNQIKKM
# [6] = molecular target: Glycogen synthase kinase-3 beta (Homo sapiens, UniProt P49841); type: functional;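 note: value comes from a broad kinome profiling panel, with GSK3B as the panel member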
# Chain of Glycogen synthase kinase-3 beta (P49841 whole entry): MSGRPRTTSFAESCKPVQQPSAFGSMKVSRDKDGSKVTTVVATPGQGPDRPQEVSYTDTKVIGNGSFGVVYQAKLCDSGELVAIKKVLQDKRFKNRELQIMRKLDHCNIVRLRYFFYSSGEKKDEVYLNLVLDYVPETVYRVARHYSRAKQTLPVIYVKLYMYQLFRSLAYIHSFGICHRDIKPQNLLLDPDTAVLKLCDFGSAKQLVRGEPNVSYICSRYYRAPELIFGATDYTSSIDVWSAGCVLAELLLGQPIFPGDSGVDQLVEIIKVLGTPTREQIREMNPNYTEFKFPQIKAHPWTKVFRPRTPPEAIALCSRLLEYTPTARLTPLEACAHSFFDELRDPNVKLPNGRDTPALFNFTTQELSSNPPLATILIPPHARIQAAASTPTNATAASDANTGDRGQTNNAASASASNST
# [7] = molecular target: Lymphokine-activated killer T-cell-originated protein kinase (Homo sapiens, UniProt Q96KB5); type: functional;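 note: value comes from a kinase panel screen in which TOPK was one of the panel members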
# Chain of Lymphokine-activated killer T-cell-originated protein kinase (Q96KB5 whole entry): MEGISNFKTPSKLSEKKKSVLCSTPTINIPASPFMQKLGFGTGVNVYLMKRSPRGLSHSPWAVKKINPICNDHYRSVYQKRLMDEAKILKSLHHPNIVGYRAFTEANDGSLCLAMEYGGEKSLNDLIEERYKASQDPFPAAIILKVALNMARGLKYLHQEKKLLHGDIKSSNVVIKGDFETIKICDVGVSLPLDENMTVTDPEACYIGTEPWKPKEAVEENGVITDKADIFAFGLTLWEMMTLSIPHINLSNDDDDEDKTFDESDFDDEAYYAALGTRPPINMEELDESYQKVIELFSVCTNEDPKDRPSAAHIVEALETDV
# [8] = molecular target: Tyrosine-protein kinase receptor UFO (Homo sapiens, UniProt P30530); type: functional
# Aspartyl aminopeptidase = molecular target: T1, Aspartyl aminopeptidase (Plasmodium falciparum 3D7, UniProt Q8I2J3)
# T1 sequence (Q8I2J3 whole entry): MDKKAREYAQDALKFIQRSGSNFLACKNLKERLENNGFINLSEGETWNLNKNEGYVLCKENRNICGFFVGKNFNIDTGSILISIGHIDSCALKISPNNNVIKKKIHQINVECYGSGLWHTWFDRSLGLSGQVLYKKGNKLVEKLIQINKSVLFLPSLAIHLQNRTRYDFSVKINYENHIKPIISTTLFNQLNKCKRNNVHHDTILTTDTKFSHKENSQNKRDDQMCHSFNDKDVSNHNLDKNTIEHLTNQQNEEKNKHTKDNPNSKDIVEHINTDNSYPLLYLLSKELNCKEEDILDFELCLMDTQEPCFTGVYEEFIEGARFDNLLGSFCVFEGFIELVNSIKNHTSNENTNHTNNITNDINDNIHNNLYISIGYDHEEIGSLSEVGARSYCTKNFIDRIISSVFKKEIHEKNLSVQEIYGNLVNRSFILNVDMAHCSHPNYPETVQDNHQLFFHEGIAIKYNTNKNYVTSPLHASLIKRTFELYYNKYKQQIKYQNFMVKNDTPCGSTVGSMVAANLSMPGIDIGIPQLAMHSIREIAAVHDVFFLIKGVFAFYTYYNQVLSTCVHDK
# Phosphomannomutase 2 = molecular target: T2, Phosphomannomutase 2 (Homo sapiens, UniProt O15305); experiment: Counter screen SAR assay for PMM2 inhibitors via a fluorescence intensity assay. [Related pubchem assays (depositor defined):AID1545, AID1574]
# T2 sequence (O15305 whole entry): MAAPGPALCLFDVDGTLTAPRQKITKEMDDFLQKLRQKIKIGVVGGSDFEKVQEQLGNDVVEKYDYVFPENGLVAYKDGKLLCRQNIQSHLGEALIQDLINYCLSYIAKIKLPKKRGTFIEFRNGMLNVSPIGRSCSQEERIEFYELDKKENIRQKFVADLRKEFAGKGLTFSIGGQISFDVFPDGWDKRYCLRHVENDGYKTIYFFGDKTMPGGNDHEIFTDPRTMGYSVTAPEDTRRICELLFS
# [9] = molecular target: DNA dC->dU-editing enzyme APOBEC-3G (Homo sapiens, UniProt Q9HC16); experiment: Dose Response confirmation of small molecule APOBEC3G DNA Deaminase Inhibitors via a fluorescence-based single-stranded DNA deaminase assay. [Related pubchem assays (depositor defined):AID493012, AID493028]; type: functional
# Chain of DNA dC->dU-editing enzyme APOBEC-3G (Q9HC16 whole entry): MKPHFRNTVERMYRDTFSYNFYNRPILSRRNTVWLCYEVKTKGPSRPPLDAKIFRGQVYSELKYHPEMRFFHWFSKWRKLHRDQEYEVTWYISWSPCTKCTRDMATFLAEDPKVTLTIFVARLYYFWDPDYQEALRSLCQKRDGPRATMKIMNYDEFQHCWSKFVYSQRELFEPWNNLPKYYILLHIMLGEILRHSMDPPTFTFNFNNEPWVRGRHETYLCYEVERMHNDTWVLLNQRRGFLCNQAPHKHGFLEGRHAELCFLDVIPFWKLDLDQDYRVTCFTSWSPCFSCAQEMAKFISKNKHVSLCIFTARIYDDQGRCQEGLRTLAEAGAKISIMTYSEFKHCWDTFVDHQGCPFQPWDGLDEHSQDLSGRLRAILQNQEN
# cells = type: functional
# Cytochrome P450 2C9 = Cytochrome P450 2C9 (Homo sapiens, UniProt P11712)
# Chain of Cytochrome P450 2C9 (P11712 whole entry): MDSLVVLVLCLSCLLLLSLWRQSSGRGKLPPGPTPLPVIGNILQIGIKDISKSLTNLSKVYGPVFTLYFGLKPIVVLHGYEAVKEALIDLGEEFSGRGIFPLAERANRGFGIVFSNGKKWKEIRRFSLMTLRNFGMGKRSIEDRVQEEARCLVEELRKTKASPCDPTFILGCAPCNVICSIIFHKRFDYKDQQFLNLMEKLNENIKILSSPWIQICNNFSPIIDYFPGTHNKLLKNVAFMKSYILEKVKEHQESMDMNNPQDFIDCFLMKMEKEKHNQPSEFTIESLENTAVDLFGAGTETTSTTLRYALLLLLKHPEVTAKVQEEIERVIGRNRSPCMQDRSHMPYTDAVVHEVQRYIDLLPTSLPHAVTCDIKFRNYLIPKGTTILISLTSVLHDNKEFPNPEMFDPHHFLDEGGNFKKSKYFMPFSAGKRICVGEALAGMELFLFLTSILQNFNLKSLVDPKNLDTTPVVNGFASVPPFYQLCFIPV
# [10] = molecular target: T3, Sentrin-specific protease 7 (Homo sapiens, UniProt Q9BQF6); type: functional;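 note: Luminescence-based dose-response confirmation of ultra-high-throughput screening hits, measuring inhibition of SENP7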
# T3 sequence (Q9BQF6 whole entry): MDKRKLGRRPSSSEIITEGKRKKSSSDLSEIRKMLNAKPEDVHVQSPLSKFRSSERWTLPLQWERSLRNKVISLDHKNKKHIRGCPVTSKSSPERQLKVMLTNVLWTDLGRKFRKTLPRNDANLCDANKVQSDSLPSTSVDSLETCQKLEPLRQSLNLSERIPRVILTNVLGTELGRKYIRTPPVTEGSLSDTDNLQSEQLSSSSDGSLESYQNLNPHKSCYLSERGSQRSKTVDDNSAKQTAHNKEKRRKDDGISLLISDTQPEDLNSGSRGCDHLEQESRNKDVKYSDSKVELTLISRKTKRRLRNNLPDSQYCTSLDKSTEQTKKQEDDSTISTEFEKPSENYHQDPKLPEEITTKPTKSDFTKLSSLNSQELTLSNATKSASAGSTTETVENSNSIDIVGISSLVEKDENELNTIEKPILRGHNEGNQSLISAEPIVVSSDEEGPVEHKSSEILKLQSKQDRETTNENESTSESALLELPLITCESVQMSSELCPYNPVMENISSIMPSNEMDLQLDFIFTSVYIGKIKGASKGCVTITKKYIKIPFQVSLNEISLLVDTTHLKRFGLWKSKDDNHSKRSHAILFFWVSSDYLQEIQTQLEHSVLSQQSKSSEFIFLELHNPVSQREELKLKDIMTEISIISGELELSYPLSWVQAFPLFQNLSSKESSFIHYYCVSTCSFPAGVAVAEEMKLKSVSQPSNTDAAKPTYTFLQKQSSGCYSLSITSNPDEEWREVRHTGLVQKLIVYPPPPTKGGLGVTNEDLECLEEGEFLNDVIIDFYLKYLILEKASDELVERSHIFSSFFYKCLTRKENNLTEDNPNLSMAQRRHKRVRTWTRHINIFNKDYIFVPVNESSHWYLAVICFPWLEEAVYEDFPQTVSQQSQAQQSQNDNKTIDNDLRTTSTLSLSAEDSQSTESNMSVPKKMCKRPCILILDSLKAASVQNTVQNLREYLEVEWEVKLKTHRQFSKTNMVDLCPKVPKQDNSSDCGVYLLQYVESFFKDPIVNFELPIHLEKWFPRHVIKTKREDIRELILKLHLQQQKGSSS
# Chain of Fibroblast growth factor receptor 1 (P11362 whole entry): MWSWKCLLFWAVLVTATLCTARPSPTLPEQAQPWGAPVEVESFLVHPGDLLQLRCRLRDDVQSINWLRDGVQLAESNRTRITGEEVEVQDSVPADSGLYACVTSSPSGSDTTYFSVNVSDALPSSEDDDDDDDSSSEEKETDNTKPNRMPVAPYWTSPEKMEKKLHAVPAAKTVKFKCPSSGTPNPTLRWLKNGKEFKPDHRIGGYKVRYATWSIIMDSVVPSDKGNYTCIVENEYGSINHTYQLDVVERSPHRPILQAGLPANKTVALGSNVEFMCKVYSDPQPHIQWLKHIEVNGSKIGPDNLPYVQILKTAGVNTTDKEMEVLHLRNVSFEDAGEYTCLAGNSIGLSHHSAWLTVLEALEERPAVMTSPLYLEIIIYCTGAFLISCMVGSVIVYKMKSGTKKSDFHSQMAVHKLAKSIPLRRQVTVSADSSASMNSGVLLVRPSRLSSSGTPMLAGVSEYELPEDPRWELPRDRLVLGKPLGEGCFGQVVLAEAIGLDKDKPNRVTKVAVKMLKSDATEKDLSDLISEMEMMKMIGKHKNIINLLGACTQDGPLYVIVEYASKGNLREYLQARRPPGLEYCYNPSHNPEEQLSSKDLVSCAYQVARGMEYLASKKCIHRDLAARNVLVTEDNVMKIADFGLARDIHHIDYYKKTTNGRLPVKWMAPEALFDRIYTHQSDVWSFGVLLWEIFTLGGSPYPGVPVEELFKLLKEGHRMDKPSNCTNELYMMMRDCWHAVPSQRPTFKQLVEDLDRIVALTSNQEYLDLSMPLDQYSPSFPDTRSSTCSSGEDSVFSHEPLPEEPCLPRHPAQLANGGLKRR
# Chain of Calcium/calmodulin-dependent protein kinase type II subunit delta (Q13557 whole entry): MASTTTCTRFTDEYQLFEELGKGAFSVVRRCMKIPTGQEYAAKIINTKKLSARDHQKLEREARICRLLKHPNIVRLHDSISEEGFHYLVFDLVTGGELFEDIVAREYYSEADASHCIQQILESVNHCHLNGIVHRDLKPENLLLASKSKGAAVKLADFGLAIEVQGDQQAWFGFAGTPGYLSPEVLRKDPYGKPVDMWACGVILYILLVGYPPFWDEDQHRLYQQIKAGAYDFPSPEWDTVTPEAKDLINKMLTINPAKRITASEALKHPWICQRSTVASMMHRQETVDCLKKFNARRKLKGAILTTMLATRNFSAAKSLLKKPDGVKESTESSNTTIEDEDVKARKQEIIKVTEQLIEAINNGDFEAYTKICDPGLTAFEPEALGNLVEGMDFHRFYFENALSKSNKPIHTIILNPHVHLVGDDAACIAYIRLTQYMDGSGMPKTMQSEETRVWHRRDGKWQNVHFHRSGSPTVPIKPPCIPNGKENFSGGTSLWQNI
smiles,measurement,setting,value
Cc1cccc(NC(=O)Nc2ccc3c(c2)CCc2sc4ncnc(N)c4c2-3)c1,Ki,[1],> 6.31 µM (inactive)
same,Ki,[2],2.51 µM (active)
same,Ki,[3],0.0794 µM (active)
same,Ki,[4],0.794 µM (active)
same,Ki,[5],> 7.94 µM (inactive)
same,Ki,[6],3.16 µM (active)
same,Ki,[7],3.16 µM (active)
same,Ki,[8],0.0158 µM (active)
Cc1ccc(-n2sc3ccccc3c2=O)cc1,IC50,Aspartyl aminopeptidase,1.25 µM (active)
same,IC50,Phosphomannomutase 2,> 100 µM (inactive) and 38 µM (active)
same,IC50,[9],18.2 µM (active)
same,IC50,cells,22.4 µM (active)
N/C(=N\N=C/c1ccc(-c2ccc(O)c(C(=O)O)c2)o1)N[N+](=O)[O-],AC50,Cytochrome P450 2C9,7.94 µM (inconclusive)
CC(=O)N(/N=C1\Sc2ccccc2C1=O)c1ccccc1C,IC50,[10],3.79 µM (active)

# — ChEMBL document CHEMBL1201862, “PubChem BioAssay data set” (2004)
